# Test system: advanced solid tumors
# Assay: Tumor response per RECIST v1.1 (ORR, DCR, DOR, PFS), ITT population
# Type: in vivo, human
# Excerpt: The dose-expansion period included 3 populations: dose groups in which at least one patient achieved complete response (CR) or partial response (PR) per RECIST v1.1[16] and 1 dose group higher (evaluated for safety), as well as the dose group at the maximum tolerated dose (MTD)/recommended phase II dose (RP2D). Each of these groups included those patients in the respective dose-escalation group plus a planned additional 10 patients (approximately 20 patients in the MTD/RP2D group) with BRCA^mut+ solid tumors (ovarian, breast, or prostate cancer were preferred, and ovarian cancer could be BRCA wild type). Patients received senaparib monotherapy orally QD or BID (50-mg dose only) over each 3-week cycle until disease progression or unacceptable toxicity.
# Safety was assessed by recording the incidence of dose-limiting toxicities (DLTs), and the incidence, nature, severity (graded per National Cancer Institute Common Terminology Criteria for Adverse Events version 4.03 [NCI CTCAE v4.03][18]), and relatedness of treatment-emergent adverse events (TEAEs). DLTs were predefined toxicities (Supplementary Table S2) recorded over the 7 days following the single-dose administration of senaparib and during the first treatment cycle (day 1-day 21) for each dose group in the dose-escalation period only. The MTD was defined as the maximum dose at which ≤1/6 patients experienced a DLT. Senaparib PK parameters were derived from blood samples collected from patients after the single administration, and at regular intervals during the first cycle of the dose-escalation and dose-expansion periods. Plasma concentrations of senaparib were determined using high-performance liquid chromatography-tandem mass spectrometry. Tumor response was assessed every 6 weeks per RECIST v1.1,[16] recording objective response rate (ORR), disease control rate (DCR), duration of response (DOR), and progression-free survival (PFS) by dose level for all patients and for those harboring BRCA^mut+ tumors.
# There was no formal sample size calculation based on statistical hypothesis testing for this study; the planned enrolment was approximately 30-60 patients across the dose-escalation and dose-expansion cohorts. The actual number in the dose-escalation cohort was adjusted based on the number of dose cohorts required for the modified Fibonacci dose-escalation design and the determined MTD. Definitions for all analysis populations (safety, DLT, PK, and efficacy [intent-to-treat, ITT]) are provided in Supplementary Table S2. No statistical tests were performed; patient demographic and baseline characteristics, safety/tolerability, PK parameters, and efficacy were evaluated descriptively. ORR and DCR and their 95% CIs were calculated for each group using the exact probability method. Kaplan-Meier statistics were used to estimate DOR and PFS, and their 95% CIs for each dose group separately. Dose linearity was explored based on the single-dose data of area under the time-concentration curve (AUC) and maximum plasma concentration (Cmax) using the power model (Y = α × dose β) for the dose range 2-80 mg on a log-transformed scale. The following criterion was used to determine whether dose proportionality was met: if the (2-sided) 90% CI for β was wholly contained within the interval (1 + log(0.5)/log(r), 1 + log(2)/log(r)), then dose proportionality was supported. Here, r was defined as the ratio of the highest to lowest dose. All data analyses were carried out using SAS EG7.1 or higher or (for PK parameters) WinNonlin 7.0 or higher.
# [1] = ITT, evaluable n = 44, all doses
compound,measurement,setting,value
O=C(c1cc(Cn2c(=O)[nH]c(=O)c3c(F)cccc32)ccc1F)N1CCN(c2ncccn2)CC1 [Senaparib],Patients with a reduction from baseline in tumor size,BRCA wild-type (6/18),33.3%
same,Patients with a reduction from baseline in tumor size,BRCA^mut+ patients (13/26),50.0%
same,Median PFS,"ITT population, 95% CI, 56-255 days",167 days
same,"DOR, Events","ITT, 2 mg QD n = 1",0 n (%)
same,ORR,"ITT, 2 mg QD n = 1",0 n (%)
same,"PFS, Events","ITT, 2 mg QD n = 1",0 (0) n (%)
same,"DOR, Events","ITT, 5 mg QD n = 3",0 n (%)
same,ORR,"ITT, 5 mg QD n = 3",0 n (%)
same,"PFS, Events","ITT, 5 mg QD n = 3",2 (66.7) n (%)
same,"PFS, Median (95% CI)","ITT, 5 mg QD n = 3",464 (45-464) days
same,Complete response,"ITT, 10 mg QD n = 3",0 n (%)
same,DCR,"ITT, 10 mg QD n = 3",1 (33.3) n (%)
same,"DOR, Events","ITT, 10 mg QD n = 3",0 n (%)
same,ORR,"ITT, 10 mg QD n = 3",0 (0) n (%)
same,"PFS, Events","ITT, 10 mg QD n = 3",3 (100) n (%)
same,"PFS, Median (95% CI)","ITT, 10 mg QD n = 3",49 (47-88) days
same,Partial response,"ITT, 10 mg QD n = 3",0 n (%)
same,Stable disease,"ITT, 10 mg QD n = 3",1 (33.3) n (%)
same,Complete response,"ITT, 20 mg QD n = 5",0 n (%)
same,DCR,"ITT, 20 mg QD n = 5",2 (50.0) n (%)
same,"DOR, Events","ITT, 20 mg QD n = 5",1 (50.0) n (%)
same,"DOR, Median (95% CI)","ITT, 20 mg QD n = 5",— (1-NR)
same,ORR,"ITT, 20 mg QD n = 5",2 (50.0) n (%)
same,"PFS, Events","ITT, 20 mg QD n = 5",3 (60.0) n (%)
same,"PFS, Median (95% CI)","ITT, 20 mg QD n = 5",78 (39-NR) days
same,Partial response,"ITT, 20 mg QD n = 5",2 (50.0) n (%)
same,Stable disease,"ITT, 20 mg QD n = 5",0 n (%)
same,Complete response,"ITT, 40 mg QD n = 3",0 n (%)
same,DCR,"ITT, 40 mg QD n = 3",0 (0) n (%)
same,"DOR, Events","ITT, 40 mg QD n = 3",0 n (%)
same,ORR,"ITT, 40 mg QD n = 3",0 (0) n (%)
same,"PFS, Events","ITT, 40 mg QD n = 3",2 (66.7) n (%)
same,"PFS, Median (95% CI)","ITT, 40 mg QD n = 3",49 (48-NR) days
same,Partial response,"ITT, 40 mg QD n = 3",0 n (%)
same,Stable disease,"ITT, 40 mg QD n = 3",0 n (%)
same,Complete response,"ITT, 50 mg BID n = 4",0 n (%)
same,DCR,"ITT, 50 mg BID n = 4",2 (66.7) n (%)
same,"DOR, Events","ITT, 50 mg BID n = 4",0 n (%)
same,ORR,"ITT, 50 mg BID n = 4",1 (33.3) n (%)
same,"PFS, Events","ITT, 50 mg BID n = 4",1 (25.0) n (%)
same,"PFS, Median (95% CI)","ITT, 50 mg BID n = 4",— (46-NR)
same,Partial response,"ITT, 50 mg BID n = 4",1 (33.3) n (%)
same,Stable disease,"ITT, 50 mg BID n = 4",1 (33.3) n (%)
same,Complete response,"ITT, 60 mg QD n = 5",0 n (%)
same,DCR,"ITT, 60 mg QD n = 5",4 (100) n (%)
same,"DOR, Events","ITT, 60 mg QD n = 5",0 n (%)
same,ORR,"ITT, 60 mg QD n = 5",1 (25.0) n (%)
same,"PFS, Events","ITT, 60 mg QD n = 5",2 (40.0) n (%)
same,"PFS, Median (95% CI)","ITT, 60 mg QD n = 5",255 (127-NR) days
same,Partial response,"ITT, 60 mg QD n = 5",1 (25.0) n (%)
same,Stable disease,"ITT, 60 mg QD n = 5",3 (75.0) n (%)
same,Complete response,"ITT, 80 mg QD n = 9",0 n (%)
same,DCR,"ITT, 80 mg QD n = 9",6 (75.0) n (%)
same,"DOR, Events","ITT, 80 mg QD n = 9",4 (100) n (%)
same,"DOR, Median (95% CI)","ITT, 80 mg QD n = 9",144.5 (39-211) days
same,ORR,"ITT, 80 mg QD n = 9",4 (50.0) n (%)
same,"PFS, Events","ITT, 80 mg QD n = 9",8 (88.9) n (%)
same,"PFS, Median (95% CI)","ITT, 80 mg QD n = 9",167 (40-216) days
same,Partial response,"ITT, 80 mg QD n = 9",4 (50.0) n (%)
same,Stable disease,"ITT, 80 mg QD n = 9",2 (25.0) n (%)
same,Complete response,"ITT, 100 mg QD n = 20",0 n (%)
same,DCR,"ITT, 100 mg QD n = 20",12 (70.6) n (%)
same,"DOR, Events","ITT, 100 mg QD n = 20",1 (50.0) n (%)
same,"DOR, Median (95% CI)","ITT, 100 mg QD n = 20",— (169-NR)
same,ORR,"ITT, 100 mg QD n = 20",2 (11.8) n (%)
same,"PFS, Events","ITT, 100 mg QD n = 20",8 (40.0) n (%)
same,"PFS, Median (95% CI)","ITT, 100 mg QD n = 20",289 (48-NR) days
same,Partial response,"ITT, 100 mg QD n = 20",2 (11.8) n (%)
same,Stable disease,"ITT, 100 mg QD n = 20",10 (58.8) n (%)
same,Complete response,"ITT, 120 mg QD n = 4",0 n (%)
same,DCR,"ITT, 120 mg QD n = 4",1 (33.3) n (%)
same,"DOR, Events","ITT, 120 mg QD n = 4",0 n (%)
same,ORR,"ITT, 120 mg QD n = 4",0 (0) n (%)
same,"PFS, Events","ITT, 120 mg QD n = 4",3 (75.0) n (%)
same,"PFS, Median (95% CI)","ITT, 120 mg QD n = 4",153 (44-258) days
same,Partial response,"ITT, 120 mg QD n = 4",0 n (%)
same,Stable disease,"ITT, 120 mg QD n = 4",1 (33.3) n (%)
same,Complete response,"ITT, Total N = 57",0 n (%)
same,DCR,"ITT, Total N = 57",28 (63.6) n (%)
same,"DOR, Events","ITT, Total N = 57",6 (60.0) n (%)
same,"DOR, Median (95% CI)","ITT, Total N = 57",169 (1-NR) days
same,ORR,"ITT, Total N = 57",10 (22.7) n (%)
same,"PFS, Events","ITT, Total N = 57",32 (56.1) n (%)
same,"PFS, Median (95% CI)","ITT, Total N = 57",167 (56-255) days
same,Partial response,"ITT, Total N = 57",10 (22.7) n (%)
same,Stable disease,"ITT, Total N = 57",18 (40.9) n (%)
same,Disease control rate (DCR),[1],63.6%
same,Objective response rate (ORR),[1],22.7%
same,"Stable disease, patients",[1],40.9%
same,Median DOR,"ITT, 95% CI, 1-not reached",169 days
same,Doses at which antitumor activity was observed,in vivo,≥ 20 mg QD
same,Patients with a decrease from baseline in tumor size,non-ovarian cancers (6/20),30.0%
same,Patients with a decrease from baseline in tumor size,ovarian cancer (13/24),54.2%
same,ORR,patients with breast cancer (3/12),25.0%
same,ORR,patients with ovarian cancer (5/25),20.0%
same,ORR,patients with prostate cancer (1/4),25.0%

# Source: PMC10712727, “Safety, Tolerability, and Pharmacokinetics of Senaparib, a Novel PARP1/2 Inhibitor, in Chinese Patients With Advanced Solid Tumors: A Phase I Trial” (The Oncologist, 2023)
